Data set [1] can be described thus: Redox / oxidation potentials stated in the description without method. The class given is physicochemical. As to conditions: no method given.
The nature of data set [2]: Solubility of mediator in water, evaluated visually. The class given is physicochemical. As to conditions: for solubility: thermodynamic from solid, Table 1, water at 25° C., evaluated visually. How it is done:
Potassium ferricyanide, 9,10-phenanthrenequinone, and sodium 9,10-phenanthrene-quinone-2-sulfonate were weighed out, and water was added to them. The solubility in water at 25° C. was evaluated visually.

For data set [3] the following is noted: background statement, cited from earlier work.
Data set [4] can be described thus: Redox potential by cyclic voltammetry (glassy carbon working electrode, Ag|AgCl reference). The class given is physicochemical. As to conditions: for Eox (V), potential value at the peak oxidation current / Ered (V), potential value at the peak reduction current: 1 mM in 100 mM phosphate buffer pH 7, sweep 0.1 V/second; for E0′ (V) [(Ered + Eox)/2], redox potential: average of Ered and Eox. How it is done:
Potassium ferricyanide and sodium 9,10-phenanthrenequinone-2-sulfonate were each dissolved in an amount of 1 mM in a 100 mM phosphate buffer (pH 7), to prepare a potassium ferricyanide aqueous solution and a sodium 9,10-phenanthrenequinone-2-sulfonate aqueous solution.
These aqueous solutions were used to measure the redox potential by cyclic voltammetry for potassium ferricyanide and sodium 9,10-phenanthrenequinone-2-sulfonate. More specifically, the electrodes used here were as follows. • working electrode: glassy carbon electrode • counter electrode: platinum wire • reference electrode: silver/silver chloride (saturated potassium chloride) electrode (hereinafter referred to as Ag|AgCl).
A potentiostat was used for measurement. The various electrodes and the potentiostat were types commonly used in electrochemistry. This equipment can be purchased from BAS, for example.
The cyclic voltammetry involved searching for the potential applied to the working electrode, linearly with respect to time. The sweep rate was set to 0.1 V/second. First, a first potential was applied to the working electrode, and the electrode potential was swept to the negative side from the starting potential to a second potential that was more negative. Then, sweep was performed in which the electrode potential was flipped back to the positive side from the second potential to the first potential.
The first and second potentials were 0.7 V and −0.3 V, respectively, in the case of potassium ferricyanide, and were 0.2 V and −0.5 V in the case of sodium 9,10-phenanthrenequinone-2-sulfonate.
The potential discussed next is the potential with respect to Ag|AgCl.
If we calculate the redox potential as the average value [(Ered+Eox)/2] of the potential value at the peak oxidation current (Eox) and the potential value at the peak reduction current (Ered), the redox potential for the sodium 9,10-phenanthrenequinone-2-sulfonate is −150 mV and the redox potential for potassium ferricyanide is 225 mV. Thus, the redox potential for sodium 9,10-phenanthrenequinone-2-sulfonate measured using Ag|AgCl as a reference electrode was negative.
Also, compounds A, B, H′, I, I′, and J and disodium 9,10-phenanthrenequinone-2,7-disulfonate were subjected to cyclic voltammetry by the same operation as in FIG. 4. […]

[5] abbreviates: FIG. 4, vs Ag|AgCl, 100 mM phosphate buffer pH 7.

The structures appear in SMILES notation. In brackets after ≈: the same amount, converted by molar mass. Read-outs that look alike come from different tables or passages of the source.

Consider `O=C1C=C(S(=O)(=O)O)c2ccccc2C1=O` [1,2-naphthoquinone-4-sulfonic acid], for which the “redox potential of mediators pertaining to the invention” value (“redox potential of mediators pertaining” below) in data set [1] is listed as −16 mV.
Take `O=C1C(=O)c2cc(S(=O)(=O)O)ccc2-c2ccccc21` [9,10-phenanthrenequinone-2-sulfonic acid]: the “redox potential of mediators pertaining” value in data set [1] is given as −140 mV.
A word on the solubility: it is the dissolved amount per volume that the medium holds. For `O=C1C(=O)c2ccccc2-c2ccccc21` [9,10-phenanthrenequinone], the “redox potential of mediators pertaining” value in data set [1] was −180 mV. Further, in data set [2], the solubility was less than 1 mM.
Take `Cc1cc2nc3c(=O)[nH]c(=O)nc-3n(C[C@H](O)[C@H](O)[C@H](O)COP(=O)(O)OP(=O)(O)OC[C@H]3O[C@@H](n4cnc5c(N)ncnc54)[C@H](O)[C@@H]3O)c2cc1C` [FAD, flavin adenine dinucleotide]: in data set [3], the “redox potential of coenzymes and prior-art mediator” value is on record as “approximately −300 mV”.
With `O=C(O)c1cc(C(=O)O)c2c(n1)C(=O)C(=O)c1cc(C(=O)O)[nH]c1-2` [PQQ, pyrroloquinoline quinone], the “redox potential of coenzymes and prior-art mediator” value in data set [3] is “approximately −200 mV”.
As to `O=C1O[C@H]([C@@H](O)CO)C(O)=C1O` [ascorbic acid], the oxidation potential entry in data set [3] (vs. Ag|AgCl) is “approximately −140 mV”.
With `O=C1C(=O)c2cc([N+](=O)[O-])ccc2-c2ccccc21` [compound A], in data set [2] (Table 2), the Solubility in water stood at 1 mM (≈ 253 µg/mL). For the same compound, in data set [4] (vs Ag|AgCl), the “Eox (V), potential value at the peak oxidation current” value (“Eox (V), potential value” for short) is −0.10 V; the “Ered (V), potential value at the peak reduction current” value (from here on “Ered … at the peak reduction current”) is listed as −0.13 V; the “E0′ (V) [(Ered + Eox)/2], redox potential” value was −0.12 V.
Take `Nc1ccc2c(c1)C(=O)C(=O)c1ccccc1-2` [compound B]: the Solubility in water in data set [2] turned out to be 1 mM (≈ 223 µg/mL). For the same compound, in data set [4] (vs Ag|AgCl), the “Eox (V), potential value” value is −0.19 V; the “Ered … at the peak reduction current” value is on record as −0.23 V; the “E0′ (V) [(Ered + Eox)/2], redox potential” value is given as −0.21 V.
Consider `O=C1C(=O)c2cc(-c3ccc(S(=O)(=O)[O-])cc3)ccc2-c2ccccc21.[Na+]` [compound H′], for which the Solubility in water in data set [2] (Table 2) was determined as 20 mM. Further, in data set [4] (vs Ag|AgCl), the “Eox (V), potential value” value is on record as −0.14 V; the “Ered … at the peak reduction current” value is −0.21 V; the “E0′ (V) [(Ered + Eox)/2], redox potential” value is −0.18 V.
As for `O=C([O-])c1ccc(-c2ccc3c(c2)C(=O)C(=O)c2ccccc2-3)cc1.[Na+]` [compound I], in data set [2] (Table 2), the Solubility in water was 5 mM. In data set [4] (vs Ag|AgCl), the “Eox (V), potential value” value is on record as −0.14 V; the “Ered … at the peak reduction current” value was −0.22 V; the “E0′ (V) [(Ered + Eox)/2], redox potential” value is recorded as −0.18 V.
`O=C(NCCS(=O)(=O)[O-])c1ccc(-c2ccc3c(c2)C(=O)C(=O)c2ccccc2-3)cc1.[Na+]` [compound I′]: in data set [2] (Table 2), the Solubility in water is 20 mM. Further, in data set [4] (vs Ag|AgCl), the “Eox (V), potential value” value is recorded as −0.14 V; the “Ered … at the peak reduction current” value is −0.22 V; the “E0′ (V) [(Ered + Eox)/2], redox potential” value is −0.18 V.
For `O=C([O-])c1cc(C(=O)[O-])cc(-c2ccc3c(c2)C(=O)C(=O)c2ccccc2-3)c1.[Na+].[Na+]` [compound J], the Solubility in water in data set [2] (Table 2) is listed as 50 mM. Further, in data set [4] (vs Ag|AgCl), the “Eox (V), potential value” value is −0.15 V; the “Ered … at the peak reduction current” value was −0.23 V; the “E0′ (V) [(Ered + Eox)/2], redox potential” value is −0.19 V.
As for `O=C1C(=O)c2cc(S(=O)(=O)[O-])ccc2-c2ccc(S(=O)(=O)[O-])cc21.[Na+].[Na+]` [disodium 9,10-phenanthrenequinone-2,7-disulfonate], in data set [2] (Table 2), the Solubility in water entry was “over 200 mM”. Further, in data set [4] (vs Ag|AgCl), the “Eox (V), potential value” value is recorded as −0.06 V; the “Ered … at the peak reduction current” value is on record as −0.18 V; the “E0′ (V) [(Ered + Eox)/2], redox potential” value was −0.12 V.
In the case of `O=C1C(=O)c2cccnc2-c2ncccc21` [phenanthroline quinone], in data set [3], the “redox potential of coenzymes and prior-art mediator” value is reported as “approximately 0 mV”.
Consider `O=C1C(=O)c2cc(S(=O)(=O)[O-])ccc2-c2ccccc21.[Na+]` [sodium 9,10-phenanthrenequinone-2-sulfonate], for which, in data set [2], the “Solubility in water (in words)” value is listed as “good solubility” and the solubility is greater than 80 mM. In data set [4] (vs Ag|AgCl), the “Eox (V), potential value” value is reported as −0.12 V; the “Ered … at the peak reduction current” value is −0.18 V; the “redox potential [(Ered+Eox)/2]” value is listed as −150 mV; the “E0′ (V) [(Ered + Eox)/2], redox potential” value is given as −0.15 V. In addition, in data set [4] (setting [5]), the “potential at the peak oxidation current” value was −120 mV and the “potential at the peak reduction current” value is reported as −180 mV. Further, the “redox reaction with a glassy carbon electrode” value in data set [4] (cyclic voltammetry) was “quickly and reversibly”. In addition, in data set [4] (difference to potassium ferricyanide), the “redox potential lower than that of potassium ferricyanide” value is “about 400 mV”.

These data come from US11639912B2, “Sensor and concentration measurement method” (PHC Holdings Corporation, priority 2009, dated 2023).
